Experiments:
[1] = test system: Human immunodeficiency virus 1; assay: Antiviral activity against HIV1 harboring RES056 mutant infected in human MT4 cells assessed as reduction in virus induced cytopathic effect incubated for 5 days by Spectrophotometric based MTT assay; type: functional, organism-based; details: Human immunodeficiency virus 1, RES056, MT4, 120 h
[2] = test system: Human immunodeficiency virus 1; assay: Antiviral activity against wild type HIV1 IIIB infected in human MT4 cells assessed as reduction in virus induced cytopathic effect incubated for 5 days by Spectrophotometric based MTT assay; type: functional, organism-based; details: Human immunodeficiency virus 1, IIIB, MT4, 120 h
MT4 = assay: Cytotoxicity against human MT4 cells assessed as reduction in cell viability incubated for 5 days by Spectrophotometric based MTT assay; type: functional; details: MT4, 120 h, time 5 day
[3] = Selectivity index, ratio of CC50 for cytotoxicity against human MT4 cells to EC50 for antiviral activity against wild type HIV1 IIIB infected in human MT4 cells
[4] = test system: Human immunodeficiency virus 1; assay: Antiviral activity against HIV1 harboring Y188L mutant infected in human MT4 cells assessed as reduction in virus induced cytopathic effect incubated for 5 days by Spectrophotometric based MTT assay; type: functional, organism-based; details: Human immunodeficiency virus 1, MT4, 120 h
[5] = test system: Human immunodeficiency virus 1; assay: Antiviral activity against HIV1 harboring E138K mutant infected in human MT4 cells assessed as reduction in virus induced cytopathic effect incubated for 5 days by Spectrophotometric based MTT assay; type: functional, organism-based; details: Human immunodeficiency virus 1, MT4, 120 h
[6] = test system: Human immunodeficiency virus 1; assay: Antiviral activity against HIV1 harboring K103 N mutant infected in human MT4 cells assessed as reduction in virus induced cytopathic effect incubated for 5 days by Spectrophotometric based MTT assay; type: functional, organism-based; details: Human immunodeficiency virus 1, MT4, 120 h
[7] = Selectivity index, ratio of CC50 for cytotoxicity against human MT4 cells to EC50 for antiviral activity against HIV1 RES056 mutant infected in human MT4 cells
[8] = test system: Human immunodeficiency virus 1; assay: Antiviral activity against HIV1 harboring Y181C mutant infected in human MT4 cells assessed as reduction in virus induced cytopathic effect incubated for 5 days by Spectrophotometric based MTT assay; type: functional, organism-based; details: Human immunodeficiency virus 1, MT4, 120 h
[9] = test system: Human immunodeficiency virus 1; assay: Antiviral activity against HIV1 harboring F227L/V106A mutant infected in human MT4 cells assessed as reduction in virus induced cytopathic effect incubated for 5 days by Spectrophotometric based MTT assay; type: functional, organism-based; details: Human immunodeficiency virus 1, MT4, 120 h
[10] = test system: Human immunodeficiency virus 1; assay: Antiviral activity against HIV1 harboring L100I mutant infected in human MT4 cells assessed as reduction in virus induced cytopathic effect incubated for 5 days by Spectrophotometric based MTT assay; type: functional, organism-based; details: Human immunodeficiency virus 1, MT4, 120 h
[11] = biological target: Human immunodeficiency virus type 1 reverse transcriptase (Human immunodeficiency virus 1, UniProt Q72547); assay: Inhibition of wild type HIV1 reverse transcriptase assessed as inhibition of biotin deoxyuridine triphosphate incorporation into cDNA using DIG-labelled dNTP preincubated with compound for 1 hr followed by substrate addition in presence of biotin-labeled dNTPs by ELISA analysis

SMILES | EC50 [1] [µM] | EC50 [2] [µM] | CC50 (MT4) [µM] | selectivity ratio ([3]; MT4 cells) | EC50 [4] [µM] | EC50 [5] [µM] | EC50 [6] [µM] | selectivity ratio ([7]; MT4 cells) | EC50 [8] [µM] | EC50 [9] [µM] | EC50 [10] [µM] | IC50 [11] [µM] | selectivity ratio ([7]; mt4) | selectivity ratio ([3]; mt4)
COP(=O)(OC)N1CCN(c2ccc(Nc3nccc(Oc4c(C)cc(/C=C/C#N)cc4C)n3)cc2C#N)C(=O)C1 | > 23.2 | 0.25 | 23.2 | 94 | – | – | – | – | – | – | – | – | – | –
Cc1cc(/C=C/C#N)cc(C)c1Oc1ccnc(Nc2ccc(N3CCSCC3)c(C#N)c2)n1 | 0.45 | 0.009 | > 267 | > 30300 | 3 | 0.049 | 0.006 | > 596 | 0.04 | 0.066 | 0.021 | – | – | –
CC(=O)N1CCN(c2ccc(Nc3nccc(Oc4c(C)cc(/C=C/C#N)cc4C)n3)cc2C#N)CC1 | 0.55 | 0.005 | 6.64 | 1280 | > 6.64 | 0.03 | 0.003 | 12 | 0.065 | 0.044 | 0.062 | – | – | –
Cc1cc(/C=C/C#N)cc(C)c1Oc1ccnc(Nc2ccc(N3CC[S+]([O-])CC3)c(C#N)c2)n1 | 2.19 | 0.005 | 97.8 | 19300 | > 97.8 | 0.026 | 0.004 | 45 | 0.046 | 0.19 | 0.022 | – | – | –
Cc1cc(/C=C/C#N)cc(C)c1Oc1ccnc(Nc2ccc(N3CCN(C)CC3)c(C#N)c2)n1 | > 3.94 | 0.02 | 3.94 | 195 | – | – | – | – | – | – | – | – | – | –
Cc1cc(/C=C/C#N)cc(C)c1Oc1ccnc(Nc2ccc(N3CCCC3)c(C#N)c2)n1 | 5.32 | 0.054 | 270 | 5010 | – | – | – | 51 | – | – | – | – | – | –
CSC1CN(c2ccc(Nc3nccc(Oc4c(C)cc(/C=C/C#N)cc4C)n3)cc2C#N)C1 | 2.71 | 0.006 | > 267 | > 45200 | > 267 | 0.039 | 0.006 | > 99 | 0.053 | 0.15 | 0.018 | – | – | –
Cc1cc(/C=C/C#N)cc(C)c1Oc1ccnc(Nc2ccc(N3CCS(=O)(=O)CC3)c(C#N)c2)n1 | 0.26 | 0.002 | 58.2 | – | > 58.3 | 0.009 | 0.002 | – | 0.012 | 0.058 | 0.004 | 0.16 | – | –
Cc1cc(/C=C/C#N)cc(C)c1Oc1ccnc(Nc2ccc(N3CCC(F)(F)CC3)c(C#N)c2)n1 | 1.27 | 0.031 | > 257 | > 8290 | – | – | – | – | – | – | – | – | – | –
CC(=O)C1CCN(c2ccc(Nc3nccc(Oc4c(C)cc(/C=C/C#N)cc4C)n3)cc2C#N)CC1 | 1.49 | 0.005 | 5.12 | 1070 | > 5.12 | 0.11 | 0.012 | 3 | 0.15 | 0.075 | 0.065 | – | – | –
Cc1cc(/C=C/C#N)cc(C)c1Oc1ccnc(Nc2ccc(N3CC(F)C3)c(C#N)c2)n1 | 0.52 | 0.009 | 170 | 20000 | > 170 | 0.063 | 0.01 | 328 | 0.049 | 0.33 | 0.048 | – | – | –
COC1CN(c2ccc(Nc3nccc(Oc4c(C)cc(/C=C/C#N)cc4C)n3)cc2C#N)C1 | > 44.2 | 0.022 | > 44.2 | > 2050 | – | – | – | – | – | – | – | – | – | –
Cc1cc(/C=C/C#N)cc(C)c1Oc1ccnc(Nc2ccc(N3CCSCC3=O)c(C#N)c2)n1 | 0.92 | 0.013 | 45.3 | 3410 | – | – | – | 49 | – | – | – | – | – | –
Cc1cc(/C=C/C#N)cc(C)c1Oc1ccnc(Nc2ccc(N3CC(C#N)C3)c(C#N)c2)n1 | > 44.7 | 0.013 | > 44.7 | > 3480 | – | – | – | – | – | – | – | – | – | –
Cc1cc(/C=C/C#N)cc(C)c1Oc1ccnc(Nc2ccc(N3CCCCC3)c(C#N)c2)n1 | 4.48 | 0.043 | > 277 | > 6380 | – | – | – | > 62 | – | – | – | – | – | –
Cc1cc(/C=C/C#N)cc(C)c1Oc1ccnc(Nc2ccc(N3CCC(C(F)(F)F)CC3)c(C#N)c2)n1 | 17.6 | 0.04 | > 241 | > 6100 | – | – | – | > 14 | – | – | – | – | – | –
Cc1cc(/C=C/C#N)cc(C)c1Oc1ccnc(Nc2ccc(N3CCC(S(C)(=O)=O)CC3)c(C#N)c2)n1 | 0.82 | 0.009 | 6.44 | 725 | 2.83 | 0.042 | 0.018 | 8 | 0.04 | 0.065 | 0.035 | – | – | –
Cc1cc(/C=C/C#N)cc(C)c1Oc1ccnc(Nc2ccc(N3CCC(C#N)CC3)c(C#N)c2)n1 | 1.39 | 0.009 | > 42.1 | > 4560 | > 42.1 | 0.11 | 0.013 | > 30 | 0.13 | 0.29 | 0.23 | – | – | –
Cc1cc(/C=C/C#N)cc(C)c1Oc1ccnc(Nc2ccc(N3CCOCC3=O)c(C#N)c2)n1 | 0.14 | 0.003 | 26.6 | 9540 | 2.6 | 0.015 | 0.004 | 191 | 0.023 | 0.33 | 0.013 | – | – | –
Cc1cc(/C=C/C#N)cc(C)c1Oc1ccnc(Nc2ccc(N3CCS(=O)(=O)CC3=O)c(C#N)c2)n1 | 0.91 | 0.004 | 34 | 8130 | 18.4 | 0.13 | 0.003 | 37 | 0.14 | 0.25 | 0.083 | – | – | –
Cc1cc(/C=C/C#N)cc(C)c1Oc1ccnc(Nc2ccc(N3CCC(F)CC3)c(C#N)c2)n1 | 1.48 | 0.014 | > 267 | > 18800 | – | – | – | > 181 | – | – | – | – | – | –
Cc1cc(/C=C/C#N)cc(C)c1Oc1ccnc(Nc2ccc(N3CC[S+]([O-])CC3=O)c(C#N)c2)n1 (stereo unspecified) | 2.81 | 0.015 | 26.4 | 1780 | – | – | – | 9 | – | – | – | – | – | –
COC1CCN(c2ccc(Nc3nccc(Oc4c(C)cc(/C=C/C#N)cc4C)n3)cc2C#N)CC1 | > 6.89 | 0.006 | 6.89 | 1080 | 4.86 | 0.19 | 0.013 | – | 0.16 | 0.15 | 0.13 | – | – | –
Cc1cc(/C=C/C#N)cc(C)c1Oc1ccnc(Nc2ccc(N3CCN(C=O)CC3)c(C#N)c2)n1 | 0.93 | 0.004 | 15.9 | 4350 | 2.98 | 0.048 | 0.02 | 17 | 0.053 | 0.098 | 0.016 | – | – | –
Cc1cc(/C=C/C#N)cc(C)c1Oc1ccnc(Nc2ccc(N3CCN(S(C)(=O)=O)CC3=O)c(C#N)c2)n1 | 1.52 | 0.004 | 25.6 | 5910 | > 25.6 | 0.094 | 0.005 | 17 | 0.31 | 0.28 | 0.1 | – | – | –
O=C1Nc2ccc(Cl)cc2[C@@](C#CC2CC2)(C(F)(F)F)O1 [EFAVIRENZ] | 0.45 | – | > 6.34 | – | – | – | 0.1 | – | 0.006 | 0.29 | 0.035 | – | – | –
Cc1cc(C#N)cc(C)c1Oc1nc(Nc2ccc(C#N)cc2)nc(N)c1Br [ETRAVIRINE] | 0.081 | – | > 4.59 | – | 0.035 | 0.025 | 0.005 | – | – | 0.028 | – | – | – | –
Cc1ccnc2c1NC(=O)c1cccnc1N2C1CC1 [NEVIRAPINE] | > 15 | – | > 15 | – | > 15 | – | 9.01 | – | 4.88 | > 15 | 3.45 | – | – | –
Cc1cn([C@H]2C[C@H](N=[N+]=[N-])[C@@H](CO)O2)c(=O)[nH]c1=O [ZIDOVUDINE] | 0.035 | 0.035 | > 7.48 | – | – | – | – | – | – | – | – | – | > 214 | > 212

From ChEMBL document CHEMBL6083236, “Identification of novel diarylpyrimidine derivatives as potent HIV-1 non-nucleoside reverse transcriptase inhibitors against wild-type and K103N mutant viruses” (Eur J Med Chem, 2024)
